Reference: patent US20240226066A1, “CARDIOPROTECTION BY AUTOPHAGY INDUCTION AND METABOLIC REPROGRAMMING” (UNIVERSITE PARIS-SACLAY, priority 2021, published 2024)
Read-outs that look alike come from different tables or passages of the source.

Key:
H9C2 cells [1] = experiment: Exogenous fatty acid oxidation (XF palmitate-BSA FAO substrate with mito stress test); format: cell-based, rat; conditions: fatty acids as substrate
Method: FIG. 8C: the oxidation of the exogenous fatty acids was measured simultaneously using the XF palmitate-BSA FAO substrate kit with the mito stress test on XF cells. Before starting the test, 30 μL of XF palmitate-BSA CAM or BSA control substrate were added to the appropriate wells.
The XFe96 extracellular flow analyzer (Seahorse Biosciences, North Billerica, MA, USA) was used to measure the bioenergetic function of H9C2 cardiomyocytes. The H9C2 cells were seeded at 20 000 cells per well in XF96 cell culture microplates; all the pretreatments were carried out with serum-free cell culture medium. The Agilent Seahorse XF glycolysis stress test was performed to measure glycolytic function in the H9C2 cells; the extracellular acidification rate (ECAR) was measured sequentially by 3 injections, 10 mM glucose, 2 μM oligomycin and 50 mM 2-deoxy-D-glucose (2-DG). The Agilent Seahorse XF Cell Mito stress test measured key parameters of mitochondrial function by directly measuring the oxygen consumption rate (OCR) of the H9C2 cells. […] The oxidation of the exogenous fatty acids was measured simultaneously using the XF palmitate-BSA FAO substrate kit with the mitochondrial stress test on XF cells. […]
(§1) Next, the energy metabolism was analyzed in real time using the Seahorse technology in H9C2 cells.

RNVCs [2] = experiment: Mitochondrial network and cell volume by confocal microscopy (Mitotracker, calcein-AM, IMARIS); format: cell-based, rat; conditions: for effect on the mitochondrial network / number of mitochondria: 1 and 10 μM, 6 h
Method: FIG. 6. Effects on mitochondrial dynamics by fluorescence microscopy The RNVCs were treated with 1 μM hits (FIG. 6A) and 10 μM hits (FIG. 6B) for 6 h and the mitochondrial network was stained with 200 nM of Mitotracker. The mitochondrial network and individual mitochondria were then analyzed using a Leica confocal microscope and IMARIS software. Data are presented as mean±SEM with single-factor ANOVA, and multiple Sidak comparisons. *, p<0.05, **, p<0.01, ***, p<0.001 with respect to DMSO.
FIG. 11: following the treatment of the RNVCs with the compounds as indicated, the cell volume was stained with 4 μM of calcein-AM. The cell volume was then analyzed using the IMARIS software.
Confocal microscopy. On day 0, 4×10^5 neonatal cardiomyocytes were plated overnight on laminin-coated 35 mm culture dishes (10 μg/ml). On day 1, the cells were treated with various compounds at 1 or 10 μM for 6 hours. The cells were incubated with Mitotracker Red 580 at 200 nM for 20 minutes at 37° C., then 4 μM of calcein (Calcein AM, Life Technologies, St Aubin, France) for 10 minutes at 37° C. The images were acquired with a Leica confocal microscope (SP5) (Mannheim, Germany). The mitochondrial network and the 3D model of cell volume were reconstructed using the IMARIS software (Bitplane Company, Zurich, Switzerland); therefore the cell volume, mitochondrial number and volume were analyzed.
Due to the importance of mitochondria and reactive oxygen species (ROS) levels in the fate of cardiomyocyte cells, the hypothesis that the compounds could impact the mitochondrial network was explored. Following treatment of the RNVCs with the compounds tested, the mitochondrial network was stained with 200 nM of Mitotracker and the cell volume with 4 μM of calcein-AM. Thus, the mitochondrial network and the individual mitochondria were then analyzed using the IMARIS software.

[3] = system: A549 lung cancer cell line; experiment: Influence of hits on growth of A549 cancer cells (total LDH after lysis); format: cell-based; conditions: 48 h
Method: The cells were cultured for 6 h in the presence or absence of the hits, and then for 42 h. Finally, the cells were lysed with lysis buffer and the amount of LDH was measured to evaluate the total cell growth.
A colorimetric assay was used to measure lactate dehydrogenase (LDH), a cytosolic enzyme which is released during permeabilization of the plasma membrane (Promega G1780). The assay was performed using cell culture supernatants obtained from H9C2 or RNVC (rat neonatal ventricular myocyte) cells and lysis buffer (LB) was used as a positive control for total cell lysis. The LDH release was measured by absorbance reading at 490 nm (Infinite spectrofluorimeter, Tecan).
The effect of the compounds was then evaluated on primary rat neonatal ventricular cardiomyocytes (RNVCs) using the LDH test and propidium iodide staining. […] The absence of proliferative effects of the compounds was also evaluated on the A549 lung cancer cell line for 48 h (FIG. 2C).

RNVCs [4] = experiment: Mitochondrial ROS production with MitoSOX fluorescent probe; format: cell-based, rat; conditions: 1 μM, 6 h
Method: FIG. 12: The RNVCs were treated with 0.1% DMSO, 3 μM rapamycin, 1 μM digitoxigenin, 1 μM digoxin, 1 μM minaprin, 1 μM VP331, 1 μM LOPA87, 10 μM SG6163F for 6 h, then the ROS production was stained with the MitoSOX fluorescent probe.
The RNVCs were treated with 0.01% DMSO, 3 μM rapamycin, […], 1 μM digoxin, 1 μM minaprine, 1 μM VP331, 1 μM LOPA87, 10 μM SG6163F in a serum-free cell culture medium for 6 hours. The contents (50 μg) of a MitoSOX™ mitochondrial superoxide indicator vial (ThermoFisher, M36008) were dissolved in 13 μl dimethyl sulfoxide (DMSO) to prepare a 5 mM MitoSOX™ reagent stock solution. Next, the 5 mM MitoSOX™ reagent stock solution in PBS was diluted to prepare a 5 μM working solution of MitoSOX™ reagent. After treatment, the cells were rinsed twice with hot PBS and then incubated with a MitoSOX reagent working solution for 10 minutes at 37° C. The cells were gently rinsed three times with hot PBS. Red fluorescence was detected with a Leica confocal microscope. Nuclear fluorescence was suppressed and mitochondrial fluorescence intensity was measured using ImageJ software.
ROSs are produced or accumulated as a by-product of mitochondrial activity metabolism. Thus, the ROSs may be a consequence of mitochondrial function or may reflect a defect in the mitochondrial antioxidant system.

hERG potassium channel = biological target: T1, hERG potassium channel (Homo sapiens, UniProt Q12809); experiment: hERG channel binding assay ([3H]dofetilide displacement); conditions: for inhibition at 10 µM: human, probe [3H]dofetilide
T1 construct: Eurofins
T1 sequence (Q12809 whole entry): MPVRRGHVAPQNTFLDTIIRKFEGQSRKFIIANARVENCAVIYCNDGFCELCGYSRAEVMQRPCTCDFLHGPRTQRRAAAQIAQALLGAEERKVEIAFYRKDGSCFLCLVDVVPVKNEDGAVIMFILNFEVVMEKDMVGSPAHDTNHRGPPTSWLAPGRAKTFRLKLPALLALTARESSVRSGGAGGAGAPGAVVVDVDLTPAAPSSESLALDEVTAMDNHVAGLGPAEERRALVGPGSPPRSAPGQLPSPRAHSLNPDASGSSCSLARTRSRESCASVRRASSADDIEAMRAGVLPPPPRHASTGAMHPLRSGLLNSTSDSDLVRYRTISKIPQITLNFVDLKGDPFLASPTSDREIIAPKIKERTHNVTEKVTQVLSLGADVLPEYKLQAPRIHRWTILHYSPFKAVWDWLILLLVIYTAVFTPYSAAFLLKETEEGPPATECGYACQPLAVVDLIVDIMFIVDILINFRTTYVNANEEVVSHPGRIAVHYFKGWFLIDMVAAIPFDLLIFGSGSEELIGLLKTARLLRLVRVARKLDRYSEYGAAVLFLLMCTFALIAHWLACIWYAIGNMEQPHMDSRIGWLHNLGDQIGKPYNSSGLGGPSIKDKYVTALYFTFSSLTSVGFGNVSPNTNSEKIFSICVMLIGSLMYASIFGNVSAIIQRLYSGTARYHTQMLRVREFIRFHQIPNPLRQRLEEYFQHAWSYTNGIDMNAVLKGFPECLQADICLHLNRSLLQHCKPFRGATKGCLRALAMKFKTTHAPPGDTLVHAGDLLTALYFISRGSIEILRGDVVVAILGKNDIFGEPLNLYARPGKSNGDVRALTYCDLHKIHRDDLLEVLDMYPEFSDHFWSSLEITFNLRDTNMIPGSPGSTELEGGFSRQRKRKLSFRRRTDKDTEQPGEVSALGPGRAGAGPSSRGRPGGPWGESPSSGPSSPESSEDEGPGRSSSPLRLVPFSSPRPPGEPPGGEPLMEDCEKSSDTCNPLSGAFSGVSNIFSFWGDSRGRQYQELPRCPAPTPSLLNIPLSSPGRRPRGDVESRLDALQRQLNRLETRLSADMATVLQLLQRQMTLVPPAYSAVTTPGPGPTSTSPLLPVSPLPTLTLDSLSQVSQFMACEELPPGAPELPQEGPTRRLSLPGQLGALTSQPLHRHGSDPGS
Method: The evaluation of the binding of the compounds to the human hERG potassium channel was carried out as described previously (Eurofins).
Since the blocking of the human potassium channel hERG channel may be responsible for cardiac fibrillation leading to cardiac arrest and death of the patient, the binding of the 3 molecules SG6163F, VP331 and LOPA87 to this receptor was evaluated.

H9C2 cells [5] = experiment: Seahorse XF Cell Mito stress test (OCR); format: cell-based, rat; conditions: glucose and pyruvate as substrates, 6 h
Method: FIG. 8B: the H9c2 cells were treated with the compounds for 6 h, then a mitochondrial respiration stress test was carried out.
The XFe96 extracellular flow analyzer (Seahorse Biosciences, North Billerica, MA, USA) was used to measure the bioenergetic function of H9C2 cardiomyocytes. The H9C2 cells were seeded at 20 000 cells per well in XF96 cell culture microplates; all the pretreatments were carried out with serum-free cell culture medium. The Agilent Seahorse XF glycolysis stress test was performed to measure glycolytic function in the H9C2 cells; the extracellular acidification rate (ECAR) was measured sequentially by 3 injections, 10 mM glucose, 2 μM oligomycin and 50 mM 2-deoxy-D-glucose (2-DG). The Agilent Seahorse XF Cell Mito stress test measured key parameters of mitochondrial function by directly measuring the oxygen consumption rate (OCR) of the H9C2 cells. The test used the built-in injection ports on XF sensor cartridges to add respiration modulators into the cell well during the test in order to reveal key parameters of mitochondrial function. Oligomycin at 2 μM was injected first after the baseline measurements. Then 1 μM of […] (FCCP) was injected. The third injection corresponds to 0.5 μM of antimycin A, to stop mitochondrial respiration. The oxidation of the exogenous fatty acids was measured simultaneously using the XF palmitate-BSA FAO substrate kit with the mitochondrial stress test on XF cells. The substrate-limited medium is DMEM with 0.5 mM glucose, 1 mM GlutaMAX, 0.5 mM carnitine and 1% fetal calf serum. Carnitine was added freshly on the day of the change of medium. The FAO test medium contains 111 mM NaCl, 4.7 mM KCl, 1.25 mM CaCl2, 2 mM MgSO4, 1.2 mM NaH2PO4, supplemented with 2.5 mM glucose, 0.5 mM carnitine and 5 mM HEPES on the day of the test, adjusted to pH 7.4 at 37° C. The H9C2 cells were seeded at 20 000 cells per well in XF96 cell culture microplates. […]
as §1

LC3II = experiment: LC3 I/II conversion by western blot in RNVCs; format: cell-based, rat; conditions: rapamycin positive control (3 μM)
Method: FIG. 4E: LC3-I/II protein levels in the RNVCs. Data are presented as mean±SEM with single-factor ANOVA, and multiple Sidak comparisons. *, p<0.05, **, p<0.01 with respect to DMSO.
The H9C2 cells and RNVCs were detached in LB containing: 50 mM Tris, 150 mM NaCl, 1 mM EDTA, 0.5% deoxycholate, 1% Triton X 100, 0.1% SDS (pH 8.0). The cells were collected and placed on ice for 30 minutes. The cells were then centrifuged at 2000 g for 20 minutes at for 4° C. The supernatant was transferred to a new tube and stored on ice. The protein concentration was determined by BCA assay. The protein samples were diluted with sample buffer (2× Laemmli, Sigma), mixed, and heated for 5 minutes at 95° C. […] The images were recorded with a gel imaging system (Bio Rad). […]
Next, the hypothesis that the compounds could protect cardiac cells by activating autophagy, a catabolic process conserved in evolution that involves the degradation of damaged cytoplasmic components, was formulated. […] Then, the cells were treated with the hits and with H2O2 for 2 hours and their survival was analyzed 4 hours later by measuring LDH release (FIGS. 4B, 4C). […] In order to confirm the induction of autophagy by another approach, the RNVCs were transfected with a GFP-LC3 plasmid and the formation of the autophagosome was monitored 24 hours later. […]

Q: For `COc1ccc(C)cc1/C=N/[C@@H]1C[C@@H]2C[C@H]([C@H]1C)C2(C)C` [VP331], which oxidative phosphorylation (H9C2 cells [1]) is on record?
A: The oxidative phosphorylation was “improved oxidative phosphorylation”.

Q: What about the “effect on the mitochondrial network” value (RNVCs [2]) of the same molecule?
A: The value was “no effect”.

Q: What about the number of mitochondria (RNVCs [2]) of the same molecule?
A: The number of mitochondria was “no effect”.

Q: And the “effect on A549 cell growth” value [3]?
A: The value was “no proliferative effect”.

Q: And the “local level of mitochondrial superoxide anion” value (RNVCs [4])?
A: The value was “induced an elevation”.

Q: What about the inhibition at 10 µM (hERG potassium channel; inhibition of tritiated dofetilide binding, only values >50% considered effective, read-out: % inhibit 1st assay) of the same molecule?
A: Its inhibition at 10 µM is -4%.

Q: What about the inhibition at 10 µM (hERG potassium channel; inhibition of tritiated dofetilide binding, only values >50% considered effective, read-out: % inhibit 2nd assay) of the same molecule?
A: Its inhibition at 10 µM is 5.4%.

Q: And the inhibition at 10 µM (hERG potassium channel; mean of two independent measurements, read-out: % inhibit Mean)?
A: The inhibition at 10 µM was 0.7%.

Q: What about the “binding to the hERG channel” value (hERG potassium channel; inhibition of specific binding of [3H]dofetilide in vitro) of the same molecule?
A: The value was “negligible”.

Q: Which “ATP production by oxidative phosphorylation (OXPHOS)” value (H9C2 cells [5]) does the source give for `Cc1cc(-c2ccccc2)nnc1NCCN1CCOCC1` [minaprine] here?
A: The value was “improved ATP production by oxidative phosphorylation”.

Q: What about the mitochondrial mass (RNVCs [2]; 10 μM) of the same molecule?
A: The mitochondrial mass was “decreased the mitochondrial mass”.

Q: And the “effect on the mitochondrial network” value (RNVCs [2])?
A: Its value is “no effect”.

Q: And the number of mitochondria (RNVCs [2])?
A: Its number of mitochondria is “no effect”.

Q: And the “effect on A549 cell growth” value [3]?
A: Its value is “significantly reduced cell growth and induced cell death”.

Q: And the “local level of mitochondrial superoxide anion” value (RNVCs [4])?
A: Its value is “induced an elevation”.

Q: With `CO[C@H]1C[C@@H]2CC[C@@H](C)[C@@](O)(O2)C(=O)C(=O)N2CCCC[C@H]2C(=O)O[C@H]([C@H](C)C[C@@H]2CC[C@@H](O)[C@H](OC)C2)CC(=O)[C@H](C)/C=C(\C)[C@@H](O)[C@@H](OC)C(=O)[C@H](C)C[C@H](C)/C=C/C=C/C=C/1C` [rapamycin, reference compound] as the molecule, how does the “increase in level of expression of LC3II” value (LC3II) read?
A: The value was > 1.4 fold.
